Assay results reported in patent publication US10227331B2 (priority 2015, dated 2019).
pIC50: −log10 of the molar value. Where two headings read alike, the source gives them in different places.

Legend:
IMP-1 = IMP-1 (Serratia marcescens, UniProt P52699); experiment: biochemical; format: biochemical; conditions: CCF2-FA substrate, 2 hours at 25° C; read-out: IMP-1 IC50
Summary of the method: (§1)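 Two-hour, 25° C incubation of enzyme with inhibitor and CCF2-FA (7-hydroxycoumarin–cephalosporin–fluorescein). Fluorescence read-out; IC50 via 4-parameter fit.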

NDM-1 = NDM-1 (Klebsiella pneumoniae, UniProt C7C422); experiment: biochemical; format: biochemical
Summary of the method: as §1

VIM-1 = VIM-1 (Pseudomonas aeruginosa (strain ATCC 15692 / DSM 22644 / CIP 104116 / JCM 14847 / LMG 12228 / 1C / PRS 101 / PAO1), UniProt A0A0F7KYQ8); experiment: biochemical; conditions: CCF2-FA substrate, 2 hours at 25° C
Summary of the method: as §1

[1] = test system: Escherichia coli expressing NDM-1 (CLB30005, CLB30016); format: cell-based; conditions: with imipenem 1 μg/ml, 95% inhibition of bacterial growth
Summary of the method: (§2)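 Colonies from overnight 35 °C blood-agar cultures were suspended in saline, diluted 1:100 into 1.1× CAMHB and exposed to test compound with or without imipenem at 1 μg/ml. After 22–24 h at 35 °C, absorbance was read to find the concentration restoring imipenem susceptibility.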

[2] = test system: Klebsiella pneumoniae expressing VIM-1 (IHMA599644); format: cell-based; conditions: with imipenem 1 μg/ml, 95% inhibition of bacterial growth
Summary of the method: as §2

[3] = test system: Serratia marcescens expressing IMP-1 (CL5741); format: cell-based; conditions: with imipenem 1 μg/ml, 95% inhibition of bacterial growth
Summary of the method: as §2

[4] = test system: P. aeruginosa expressing IMP-1, efflux+ (MB9798); format: cell-based, Pseudomonas aeruginosa; conditions: for P. aeruginosa expressing IMP-1, efflux+ (MB9798) MITC95: imipenem at 2 μg/mL, in the presence of a class A, C, D serine β-lactamase inhibitor closely related to relebactam; for Efflux ratio: ratio MITC95 PA_9798/MITC95 PA_9799
Description: (§3) The strain background is Pseudomonas aeruginosa PAO1.

[5] = test system: P. aeruginosa expressing IMP-1, efflux− (MB9799); experiment: Efflux: concentration of MBL inhibitor which restores susceptibility to imipenem; format: cell-based, Pseudomonas aeruginosa; conditions: imipenem at 2 μg/mL, in the presence of a class A, C, D serine β-lactamase inhibitor closely related to relebactam
Description: as §3

[6] = CCF2-FA substrate, 2 hours at 25° C, read-out: NDM-1 IC50

NDM-1, sequence (C7C422 whole entry, looked up, species assumed): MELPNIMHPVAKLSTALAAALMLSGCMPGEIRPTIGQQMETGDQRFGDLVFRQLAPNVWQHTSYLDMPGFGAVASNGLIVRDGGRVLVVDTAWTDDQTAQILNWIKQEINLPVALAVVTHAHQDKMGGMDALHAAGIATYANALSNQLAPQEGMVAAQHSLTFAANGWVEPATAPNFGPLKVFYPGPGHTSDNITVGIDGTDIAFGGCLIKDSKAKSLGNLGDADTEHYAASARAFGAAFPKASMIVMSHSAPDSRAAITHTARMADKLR
IMP-1, sequence (P52699 whole entry, looked up, species assumed): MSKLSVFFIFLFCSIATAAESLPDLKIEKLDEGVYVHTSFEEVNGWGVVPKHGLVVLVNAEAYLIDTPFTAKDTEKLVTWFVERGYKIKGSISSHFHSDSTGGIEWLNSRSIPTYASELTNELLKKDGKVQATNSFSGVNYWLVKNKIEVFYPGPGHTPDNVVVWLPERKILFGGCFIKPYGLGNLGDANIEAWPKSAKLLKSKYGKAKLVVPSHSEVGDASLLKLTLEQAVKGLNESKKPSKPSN

Compound: C[C@H](N)CS(=O)(=O)c1ccc(-c2cccc3[nH]c(N)nc23)c(-c2nn[nH]n2)c1S(N)(=O)=O [Example 92, 3-(2-amino-1H-benzo[d]imidazol-4-yl)-6-((S)-2-aminopropylsulfonyl)-2-(2H-tetrazol-5-yl)benzenesulfonamide]
- pIC50 (IMP-1): 9.21
- pIC50 (NDM-1; [6]): 9.85
- pIC50 (VIM-1): 9.65
- Escherichia coli expressing NDM-1 (CLB30016) MITC95 [1]: 0.2969 µM
- Klebsiella pneumoniae expressing VIM-1 (IHMA599644) MITC95 [2]: 0.8542 µM
- Serratia marcescens expressing IMP-1 (CL5741) MITC95 [3]: 0.6406 µM
- P. aeruginosa expressing IMP-1, efflux+ (MB9798) MITC95 [4]: 0.4777 µM
- Efflux ratio [4]: 0.81
- P. aeruginosa expressing IMP-1, efflux− (MB9799) MITC95 [5]: 0.5893 µM

Compound: Nc1nc2c(-c3ccc(S(=O)(=O)c4ccccc4)c(S(N)(=O)=O)c3-c3nnn[nH]3)cccc2s1 [Example 232, 3-(2-aminobenzo[d]thiazol-4-yl)-6-(phenylsulfonyl)-2-(1H-tetrazol-5-yl)benzenesulfonamide]
- pIC50 (IMP-1): 9.23
- pIC50 (NDM-1; [6]): 9.23
- pIC50 (VIM-1): 9.27
- Escherichia coli expressing NDM-1 (CLB30016) MITC95 [1]: 6.25 µM
- Klebsiella pneumoniae expressing VIM-1 (IHMA599644) MITC95 [2]: 12.5 µM
- Serratia marcescens expressing IMP-1 (CL5741) MITC95 [3]: 3.125 µM
- P. aeruginosa expressing IMP-1, efflux+ (MB9798) MITC95 [4]: 12.5 µM
- Efflux ratio [4]: 8.00
- P. aeruginosa expressing IMP-1, efflux− (MB9799) MITC95 [5]: 1.563 µM

Compound: Cn1c(N)nc2cccc(-c3ccc(S(=O)(=O)C4CNC4)c(S(N)(=O)=O)c3-c3nn[nH]n3)c21 [Example 19, 3-(2-Amino-1-methyl-1H-benzo[d]imidazol-7-yl)-6-(azetidin-3-ylsulfonyl)-2-(2H-tetrazol-5-yl)benzenesulfonamide]
- pIC50 (IMP-1): 8.60
- pIC50 (NDM-1; [6]): 9.96
- pIC50 (VIM-1): 9.82
- Escherichia coli expressing NDM-1 (CLB30016) MITC95 [1]: 0.7813 µM
- Klebsiella pneumoniae expressing VIM-1 (IHMA599644) MITC95 [2]: 1.563 µM
- Serratia marcescens expressing IMP-1 (CL5741) MITC95 [3]: 1.563 µM
- P. aeruginosa expressing IMP-1, efflux+ (MB9798) MITC95 [4]: 6.25 µM
- Efflux ratio [4]: 4.00
- P. aeruginosa expressing IMP-1, efflux− (MB9799) MITC95 [5]: 1.563 µM

Compound: Nc1ccc(-c2ccc([S+]([O-])C3CCNCC3)c(S(N)(=O)=O)c2-c2nn[nH]n2)cn1 (centres unmarked) [Example 10, 3-(6-aminopyridin-3-yl)-6-(piperidin-4-ylsulfinyl)-2-(2H-tetrazol-5-yl)benzenesulfonamide]
- pIC50 (IMP-1): 7.56
- pIC50 (NDM-1; [6]): 8.50
- pIC50 (VIM-1): 8.19
- Escherichia coli expressing NDM-1 (CLB30016) MITC95 [1]: 6.25 µM
- Klebsiella pneumoniae expressing VIM-1 (IHMA599644) MITC95 [2]: 6.25 µM
- Serratia marcescens expressing IMP-1 (CL5741) MITC95 [3]: 6.25 µM
- P. aeruginosa expressing IMP-1, efflux+ (MB9798) MITC95 [4]: 6.25 µM
- Efflux ratio [4]: 2.00
- P. aeruginosa expressing IMP-1, efflux− (MB9799) MITC95 [5]: 3.125 µM

Compound: NCCS(=O)(=O)c1ccc(-c2cccc3[nH]c([C@H](N)CN)nc23)c(-c2nn[nH]n2)c1S(N)(=O)=O [Example 327, (R)-6-((2-Aminoethyl)sulfonyl)-3-(2-(1,2-diaminoethyl)-1H-benzo[d]imidazol-4-yl)-2-(2H-tetrazol-5-yl)benzenesulfonamide]
- pIC50 (IMP-1): 8.65
- pIC50 (NDM-1): 8.99
- pIC50 (VIM-1): 9.34
- Escherichia coli MITC95 ([1]; NDM-1 (CLB30016)): 1.563 µM
- Klebsiella pneumoniae MITC95 ([2]; VIM-1 (IHMA599644)): 3.125 µM
- Serratia marcescens MITC95 ([3]; IMP-1 (CL5741)): 3.125 µM
- P. aeruginosa expressing IMP-1, efflux+ (MB9798) MITC95 [4]: 3.125 µM
- Efflux ratio [4]: 2.00
- P. aeruginosa expressing IMP-1, efflux− (MB9799) MITC95 [5]: 1.563 µM

Compound: CCCS(=O)(=O)c1ccc(C2=CCC(N)CC2)c(-c2nnn[nH]2)c1S(N)(=O)=O (centres unmarked) [Example 211, 4′-amino-4-(propylsulfonyl)-2-(1H-tetrazol-5-yl)-2′,3′,4′,5′-tetrahydro-[1,1′-biphenyl]-3-sulfonamide]
- pIC50 (IMP-1): 8.20
- pIC50 (NDM-1; [6]): 7.61
- pIC50 (VIM-1): 9.11
- Escherichia coli expressing NDM-1 (CLB30016) MITC95 [1]: 12.5 µM
- Klebsiella pneumoniae expressing VIM-1 (IHMA599644) MITC95 [2]: 25 µM
- Serratia marcescens expressing IMP-1 (CL5741) MITC95 [3]: 6.25 µM
- P. aeruginosa expressing IMP-1, efflux+ (MB9798) MITC95 [4]: 50 µM
- Efflux ratio [4]: 31.99
- P. aeruginosa expressing IMP-1, efflux− (MB9799) MITC95 [5]: 1.563 µM

Compound: NCC(O)CS(=O)(=O)c1ccc(-c2cccc3sc(N)nc23)c(-c2nn[nH]n2)c1S(N)(=O)=O (centres unmarked) [Example 97, 6-(3-amino-2-hydroxypropylsulfonyl)-3-(2-aminobenzo[d]thiazol-4-yl)-2-(2H-tetrazol-5-yl)benzenesulfonamide]
- pIC50 (IMP-1): 9.77
- pIC50 (NDM-1; [6]): 10.19
- pIC50 (VIM-1): 9.60
- Escherichia coli expressing NDM-1 (CLB30016) MITC95 [1]: 0.7813 µM
- Klebsiella pneumoniae expressing VIM-1 (IHMA599644) MITC95 [2]: 1.563 µM
- Serratia marcescens expressing IMP-1 (CL5741) MITC95 [3]: 1.563 µM
- P. aeruginosa expressing IMP-1, efflux+ (MB9798) MITC95 [4]: 0.3906 µM
- P. aeruginosa expressing IMP-1, efflux− (MB9799) MITC95 [5]: 0.7813 µM

Compound: NS(=O)(=O)c1c(SC2CNC2)ccc(-c2ccc(NS(=O)(=O)C3CC3)cc2)c1-c1nn[nH]n1 [Example 243, 4-(Azetidin-3-ylthio)-4′-(cyclopropanesulfonamido)-2-(2H-tetrazol-5-yl)-[1,1′-biphenyl]-3-sulfonamide]
- pIC50 (IMP-1): 7.95
- pIC50 (NDM-1; [6]): 8.23
- pIC50 (VIM-1): 8.01
- Escherichia coli expressing NDM-1 (CLB30016) MITC95 [1]: 3.125 µM
- Klebsiella pneumoniae expressing VIM-1 (IHMA599644) MITC95 [2]: 12.5 µM
- Serratia marcescens expressing IMP-1 (CL5741) MITC95 [3]: 3.125 µM
- P. aeruginosa expressing IMP-1, efflux+ (MB9798) MITC95 [4]: 100 µM
- Efflux ratio [4]: 127.99
- P. aeruginosa expressing IMP-1, efflux− (MB9799) MITC95 [5]: 0.7813 µM

Compound: NCCN1CCC(S(=O)(=O)c2ccc(-c3cccc4nc(N)[nH]c34)c(-c3nn[nH]n3)c2S(N)(=O)=O)CC1 [Example 48, 3-(2-amino-3H-benzo[d]imidazol-4-yl)-6-(1-(2-aminoethyl)piperidin-4-ylsulfonyl)-2-(2H-tetrazol-5-yl)benzenesulfonamide]
- pIC50 (IMP-1): 8.64
- pIC50 (NDM-1; [6]): 9.41
- pIC50 (VIM-1): 9.39
- Escherichia coli expressing NDM-1 (CLB30016) MITC95 [1]: 1.563 µM
- Klebsiella pneumoniae expressing VIM-1 (IHMA599644) MITC95 [2]: 3.125 µM
- Serratia marcescens expressing IMP-1 (CL5741) MITC95 [3]: 3.125 µM
- P. aeruginosa expressing IMP-1, efflux+ (MB9798) MITC95 [4]: 3.125 µM
- Efflux ratio [4]: 2.00
- P. aeruginosa expressing IMP-1, efflux− (MB9799) MITC95 [5]: 1.563 µM

Compound: NS(=O)(=O)c1c(S(=O)(=O)C2CNC2)ccc(-c2cncnc2)c1-c1nnn[nH]1.O=C(O)C(F)(F)F [Example 110, 3-((4-(pyrimidin-5-yl)-2-sulfamoyl-3-(1H-tetrazol-5-yl)phenyl)sulfonyl)azetidin-1-ium 2,2,2-trifluoroacetate]
- pIC50 (IMP-1): 7.88
- pIC50 (NDM-1; [6]): 8.32
- pIC50 (VIM-1): 8.46
- Escherichia coli expressing NDM-1 (CLB30016) MITC95 [1]: 1.563 µM
- Klebsiella pneumoniae expressing VIM-1 (IHMA599644) MITC95 [2]: 3.125 µM
- Serratia marcescens expressing IMP-1 (CL5741) MITC95 [3]: 1.563 µM
- P. aeruginosa expressing IMP-1, efflux+ (MB9798) MITC95 [4]: 25 µM
- Efflux ratio [4]: 15.99
- P. aeruginosa expressing IMP-1, efflux− (MB9799) MITC95 [5]: 1.563 µM

Compound: Cn1c(N)nc2c(-c3ccc(S(C)(=O)=O)c(S(N)(=O)=O)c3-c3nn[nH]n3)cccc21 [Example 192, 3-(2-amino-1-methyl-1H-benzo[d]imidazol-4-yl)-6-(methylsulfonyl)-2-(2H-tetrazol-5-yl)benzenesulfonamide]
- pIC50 (IMP-1): 9.26
- pIC50 (NDM-1; [6]): 9.00
- pIC50 (VIM-1): 9.71
- Escherichia coli expressing NDM-1 (CLB30016) MITC95 [1]: 0.7813 µM
- Klebsiella pneumoniae expressing VIM-1 (IHMA599644) MITC95 [2]: 3.125 µM
- Serratia marcescens expressing IMP-1 (CL5741) MITC95 [3]: 1.563 µM
- P. aeruginosa expressing IMP-1, efflux+ (MB9798) MITC95 [4]: 3.125 µM
- Efflux ratio [4]: 4.00
- P. aeruginosa expressing IMP-1, efflux− (MB9799) MITC95 [5]: 0.7813 µM
